Here are results for twelve molecules from article PMC7401278, “Sortase A-Inhibitory Metabolites from a Marine-Derived Fungus Aspergillus sp” (Marine Drugs, 2020).

Structures are written as SMILES. Values after ≈ are worked out from the molar mass of the structure shown. Where two headings read alike, the source gives them in different places.

Data set [1] has as its system S. aureus ATCC6538p. Briefly: Antibacterial activity assay (MIC). It counts as cell-based. The conditions noted are these: Staphylococcus aureus, overnight at 37 °C. The protocol: (§1) Because SrtA inhibitors are expected to serve as anti-infective agents and inhibit bacterial pathogenesis without affecting cell viability, the minimum inhibitory concentrations (MICs) of these compounds were also measured to exclude the possible effects of test compounds on S. aureus cell adhesion to the eukaryotic cell matrix protein fibronectin owing to the inhibition of cell growth.
The MICs of test compounds were determined as previously described. S. aureus ATCC6538p (5 mL) was cultured in tryptic soy broth to saturation at 37 °C and diluted to an OD600 of 0.01. The culture was incubated for an additional 2 h and diluted to an OD600 of 0.005. In each well of a 96-well plate, 180 µL of cells was mixed with 20 µL of a concentrated test compound solution in 10% DMSO (final concentration, 1% DMSO). Culture plates were incubated overnight at 37 °C, and the OD600 was measured using a Multiskan Spectrum spectrophotometer (Thermo Labsystems Inc., Beverly, MA, USA). MIC values were defined as the lowest concentration of the test compounds inhibiting cell growth. Ampicillin was used as a positive control.

Data set [2] deals with T1, recombinant SrtA derived from S. aureus ATCC6538p (Staphylococcus aureus, UniProt Q2FV99).
T1 construct: made in house; host or cells: Escherichia coli
Kind of data set: SrtA inhibition assay (fluorescence, cleavage of dabcyl-LPETG-edans). It counts as biochemical. The settings on record: 37 °C, 1 h. As for the experimental part:
Recombinant SrtA derived from S. aureus ATCC6538p was purified from Escherichia coli extracts using metal chelate-affinity chromatography. The enzyme activity was determined from the fluorescence intensity upon cleavage of a peptide substrate containing the LPETG motif. Throughout the separation process, the crude extract and chromatographic fractions containing fungal metabolites of strain F452 inhibited the activity of SrtA. Accordingly, the same bioassay was performed using pure compounds.
The srtA gene from S. aureus ATCC6538p was expressed and recombinant SrtA was purified as previously described. The SrtA inhibition test was carried out by analyzing the increased fluorescence intensity resulting from the cleavage of synthetic peptide substrate dabcyl-LPETG-edans (AnaSpec, Inc., Fremont, CA, USA) with slight modification. The reaction was carried out with 100 μL buffer (50 mM Tris-HCl, 5 mM CaCl2, and 150 mM NaCl, pH 7.5), 7.5 µM synthetic peptide, 7.5 µM purified SrtA, and test samples at various concentrations. […] The SrtA inhibition assay was conducted at 37 °C for 1 h, and inhibition was quantified fluorometrically using a microplate reader (FLx800, BioTek Instruments, Winooski, VT, USA) at excitation and emission wavelengths of 350 and 495 nm, respectively. pHMB and berberine chloride were used as reference inhibitors of SrtA.

Data set [3] addresses T2, SrtA (Staphylococcus aureus, UniProt Q2FV99).
T2 construct: made in house; host or cells: Escherichia coli
Briefly: SrtA enzyme kinetics (Lineweaver-Burk, Dixon plot, dialysis). The class given is biochemical. The conditions noted are these: for type of inhibition: Lineweaver and Burk plot, at IC50 or twofold IC50; for binding to SrtA (reversibility): enzyme activity recovered by dialysis within 2 h. The protocol:
To determine the type of inhibition, kinetic studies were performed with compounds 1 and 3 at IC50 or twofold IC50 based on a Lineweaver and Burk plot (Figure 2). Inhibitor constants were obtained by a Dixon plot. […] Moreover, the binding of compounds 1 and 3 to SrtA was reversible because the enzyme activity was indeed recovered by dialysis within 2 h, excluding the possible existence of a covalent bond between inhibitor and enzyme.
All sortase (SrtA) assays were performed at 37 °C in SrtA enzyme buffer as described above. The inhibitors 1 and 3 were dissolved in DMSO and immediately diluted to the desired working concentration with the same SrtA buffer. The enzymatic inhibition measurements were carried out at different substrate concentrations in the presence and absence of a given concentration of inhibitor, and their kinetics were evaluated by the Lineweaver and Burk plot method. For the dialysis kinetic studies, a solution of enzyme (0.96 mL, 75 μM) and fixed inhibitor concentration (0.04 mL) was prepared and dialyzed against 100 mL buffer at 37 °C for 2 h using regenerated cellulose dialysis membranes SPECTRAPOR® (Rancho Dominguez, CA, USA). Aliquots of 100 μL of the enzyme-inhibitor mixture were taken in time intervals of 0, 30, 60, 90, and 120 min and added to 0.020 mL of substrate (7.5 μM), and after an hour of incubation the enzyme activity was measured. A control solution prepared with enzyme and buffer (SrtA buffer, 100 μL; SrtA, 7.5 μM) was treated similarly.

Data set [4] is described as follows: Cytotoxicity assay (SRB), A549. It counts as cell-based. The settings on record: human, A549 (lung cancer) cells, A549, 72 h. As for the experimental part: as §1
(§2) The effect of compounds (1–8) on cell proliferation was measured by the sulforhodamine B (SRB) cellular protein-staining method. In brief, A549 (lung cancer) and K562 (leukemia) cells (1 × 10^4 cells in 190 μL of complete DMEM) were seeded in 96-well plates with various concentrations of compounds (1–8) and incubated at 37 °C in a humidified atmosphere with 5% CO2. After 72 h of compound (1–8) treatment, the cells were fixed with 10% TCA solution for 1 h, and cellular proteins were stained with a solution of 0.4% SRB in 1% acetic acid. The stained cells were dissolved in 10 mM Tris buffer (pH 10.0). The effect of compounds (1–8) on cell viability was calculated as a percentage relative to a solvent-treated control, and the IC50 values were calculated using a nonlinear regression analysis (percent survival versus concentration). Etoposide was used as a positive control.

Data set [5] is described as follows: Cytotoxicity assay (SRB), K562. The settings on record: human, K562 (leukemia) cells, K562, 72 h. The class given is cell-based. As for the experimental part: as §1, §2
Data set [6] deals with S. aureus strain Newman (wild-type) adhesion to fibronectin. Kind of data set: Fibronectin-binding assay. The class given is cell-based, Staphylococcus aureus. The text has this:
An active SrtA enzyme is required for the attachment of S. aureus to eukaryotic cell matrix proteins, such as fibronectin and fibrinogen, thus accelerating bacterial adhesion to host tissues and subsequent invasion. The srtA^− mutant strain cannot bind these proteins. Thus, SrtA inhibitors should inhibit SrtA activity in vivo and in turn reduce fibronectin-binding protein surface display. Initially, the SrtA-mediated fibronectin-binding capacities of S. aureus strain Newman (wild-type) and its isogenic srtA knockout mutant (srtA^−) to fibronectin were evaluated. […] Based on SrtA inhibition intensity, compound 1 was selected. The results of the inhibition of S. aureus adhesion to fibronectin via fibronectin-binding protein by compound 1 are shown in Figure 3b.
S. aureus strains used were Newman (wild-type) and the isogenic srtA knockout mutant (srtA^−). These strains were cultured in tryptic soy broth at 37 °C at 200 rpm up to mid-log phase (OD600 = 0.5). The fibronectin-binding assay was performed as described previously. Cells were treated with test compounds at their indicated concentrations. Every 30 min for 2.5 h, a 0.65 mL cell suspension was centrifuged at 10,000× g for 10 min, and the supernatant was eliminated. […] Plates were dried overnight and absorbance was measured at 560 nm using a microplate reader.

Data set [7] relates to PC-12 cells. On the set-up: method as in PMID 14698172. The settings on record: cited from earlier work.
Data set [8] has as its system Colletotrichum acutatum. More on the design: method as in PMID 26998701. The conditions noted are these: cited from earlier work.
Data set [9] relates to Bacillus subtilis. On the set-up: method as in PMID 26363876. The conditions noted are these: cited from earlier work.
Data set [10] has as its system human prostate cancer cell line PC3. More on the design: method as in PMID 26363876. The conditions noted are these: cited from earlier work.
[11] abbreviates: SrtA IC50, recombinant SrtA, value in parentheses.

T2 sequence (Q2FV99 whole entry): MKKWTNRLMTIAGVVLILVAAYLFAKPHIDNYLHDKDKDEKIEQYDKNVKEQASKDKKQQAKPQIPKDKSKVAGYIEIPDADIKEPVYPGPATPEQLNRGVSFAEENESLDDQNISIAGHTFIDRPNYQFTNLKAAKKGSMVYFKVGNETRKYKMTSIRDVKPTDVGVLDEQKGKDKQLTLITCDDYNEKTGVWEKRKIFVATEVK
T1 sequence (Q2FV99 whole entry): as above

Take `CC1(C)S[C@@H]2[C@H](NC(=O)[C@H](N)c3ccccc3)C(=O)N2[C@H]1C(=O)O` [Ampicillin, reference compound]: the MIC (in general, the least concentration at which growth counts as inhibited) is 0.4 µM in [1] and 0.1 µg/mL in data set [1] (value in parentheses).
Take `COc1ccc2cc3[n+](cc2c1OC)CCc1cc2c(cc1-3)OCO2` [Berberine chloride, berberine chloride, reference compound]: the IC50 (usually the concentration at which inhibition is half-maximal) in data set [2] (SrtA IC50, recombinant SrtA) is 85.9 ± 1.2 µM; in [2] (setting [11]), 94.8 µM. The MIC in data set [1] is more than 332 µM; in [1] (value in parentheses), more than 128 µg/mL.
In the case of `CC1CCC2C(C=CC(C)(O)C2(C)C(=O)CCO)C1` (stereo not drawn) [Compound 1, aspermytin A], the IC50 stood at 146 ± 2.3 µM in data set [2] (SrtA IC50, recombinant SrtA) and 146 ± 0.6 µM in data set [2] (setting [11]). In [3], the affinity corresponds to a Ki of 265 µM. In [3], the type of inhibition entry is recorded as “mixed inhibitor”. The “binding to SrtA (reversibility)” value in data set [3] is given as “reversible”. The MIC is more than 480 µM in data set [1] and more than 128 µg/mL in [1] (value in parentheses). For the same molecule, the IC50 at 72 h in data set [4] and in [5] was more than 100 µM each time. For the same molecule, the “onset and magnitude of inhibition of Newman strain adhesion to fibronectin” value in data set [6] (4× the SrtA IC50 value) was “comparable to the behavior of the untreated srtA knockout mutant”. For the same molecule, the “bacterial adherence to fibronectin-coated surfaces” value in [6] (strain Newman, 0-, 1-, 2-, or 4-fold the SrtA IC50) is given as “significantly reduced”. Moreover, in [7], the neurotrophic effects result is “significant neurotrophic effects”.
With `CCC(C)C1NC(=O)C(C(C)C)n2c1nc1ccc(OC)cc1c2=O` (stereo not drawn) [Compound 2, versicomide A], the IC50 turned out to be 269 ± 3.9 µM in data set [2] (SrtA IC50, recombinant SrtA) and 269.3 ± 1.4 µM in data set [2] (setting [11]). The results for the MIC in data set [1] and in data set [1] (value in parentheses) were more than 373 µM and more than 128 µg/mL, respectively. For the same molecule, the IC50 at 72 h in data set [4] and in data set [5] was 13 to 50 µM each time.
As to `CCC(C)C1NC(=O)C(C(C)C)n2c1nc1c(c2=O)C=C(OC)C=CO1` (stereo not drawn) [Compound 3, versicoloid A], the 50% inhibitory concentration (IC50) in [2] (SrtA IC50, recombinant SrtA) stood at 193 ± 2.5 µM; in data set [2] (setting [11]), 193.4 ± 0.899 µM. Further, in [3], the affinity corresponds to a Ki of 83 µM. Besides, the type of inhibition entry in [3] is “uncompetitive inhibitor”. In addition, the “binding to SrtA (reversibility)” value in [3] was “reversible”. Moreover, the MIC was more than 356 µM in data set [1] and more than 128 µg/mL in data set [1] (value in parentheses). The IC50 at 72 h in [4] and in data set [5] was 13 to 50 µM in each case. Further, the “minimum inhibitory concentration (MIC)” value in data set [8] is 1.6 µg/mL (≈ 4.45 µM).
Regarding `CC1C(=O)N2c3ccccc3C3(O)CC(n4cnc5ccccc5c4=O)C(=O)N1C23` (stereo not drawn) [Compound 4, isochaetominine A], the IC50 turned out to be 268 ± 4.1 µM in data set [2] (SrtA IC50, recombinant SrtA) and 267.9 ± 1.5 µM in data set [2] (setting [11]). Further, the results for the MIC in [1] and in data set [1] (value in parentheses) were more than 318 µM and more than 128 µg/mL, respectively. Further, the IC50 at 72 h in data set [4] and in [5] was 13 to 50 µM throughout.
With `CCC1C(=O)N2c3ccccc3C3(O)CC(n4cnc5ccccc5c4=O)C(=O)N1C23` (stereo not drawn) [Compound 5, isochaetominine B], the IC50 in [2] (SrtA IC50, recombinant SrtA) amounted to 232 ± 3.7 µM; in data set [2] (setting [11]), 232.4 ± 1.4 µM. The MIC in data set [1] is more than 307 µM; in [1] (value in parentheses), more than 128 µg/mL. The IC50 at 72 h in data set [4] and in [5] was 13 to 50 µM each time.
Consider `CC(C)C1C(=O)N2c3ccccc3C3(O)CC(n4cnc5ccccc5c4=O)C(=O)N1C23` (stereo not drawn) [Compound 6, isochaetominine C], for which the IC50 in data set [2] (SrtA IC50, recombinant SrtA) turned out to be 216 ± 2.5 µM; in data set [2] (setting [11]) it was 216.3 ± 1.1 µM. The results for the MIC in data set [1] and in [1] (value in parentheses) were more than 297 µM and more than 128 µg/mL, respectively. For the same molecule, the IC50 at 72 h in data set [4] and in data set [5] was 13 to 50 µM in each case. The “inhibition against Bacillus subtilis” value in data set [9] is on record as “weak inhibition”.
For `CC(C)C1C(=O)N2c3ccccc3C3(O)CC(n4cnc5ccccc5c4=O)C(=O)N1C23` (stereo not drawn) [Compound 7, 14-epi-isochaetominine C], the IC50 in [2] (SrtA IC50, recombinant SrtA) came to 237 ± 3.8 µM; in [2] (setting [11]), 237.2 ± 1.2 µM. In addition, in [10], the cytotoxic activity entry is on record as “weak cytotoxic activity”.
Turning to `CC12NC(=O)C(Cc3c1[nH]c1ccccc31)n1c2nc2ccccc2c1=O` (stereo not drawn) [Compound 8, fumiquinazoline K], the IC50 in data set [2] (read-out: SrtA IC50, recombinant SrtA) was found to be 235 ± 2.6 µM; in [2] (read-out: SrtA IC50, recombinant SrtA, value in parentheses), 235.1 ± 0.9 µM. In addition, the MIC in data set [1] is more than 359 µM; in data set [1] (value in parentheses), more than 128 µg/mL. Besides, the IC50 at 72 h in data set [4] and in [5] was more than 100 µM each time.
For the molecule `COc1cc([C@@H]2c3cc4c(cc3[C@@H](O[C@@H]3O[C@@H]5CO[C@@H](C)O[C@H]5[C@H](O)[C@H]3O)[C@H]3COC(=O)[C@H]23)OCO4)cc(OC)c1O` [etoposide, reference compound], the IC50 at 72 h in data set [4] and in data set [5] was 0.5 µM throughout.
As to `O=C(O)c1cc[c]([Hg][OH])cc1` [pHMB, para-hydroxymercuribenzoic acid, reference compound], the IC50 in data set [2] (recombinant SrtA, read-out: SrtA IC50) amounted to 112 ± 1.7 µM. Moreover, the “SrtA IC50” value in [2] (recombinant SrtA, value in parentheses) was 33.1 ± 0.5 µg/mL.
